The values that follow come from patent publication US20250059204A1, “FUSED BENZOISOXAZOLYL COMPOUNDS AS KAT6A INHIBITORS” (Aurigene Oncology Limited, priority 2021, published 2025).

The experiment has as its target human-KAT6A (MYST domain 507-778 aa) (Homo sapiens (Human), UniProt Q92794). The experiment is described as follows: KAT6A biochemical assay (TR-FRET). Particulars: H4 peptide 200 nM, acetyl-CoA 600 nM. The text has this:
TR-FRET based method was used for assaying compounds of the present invention for KAT6A enzyme inhibitory activity. TR-FRET is homogeneous proximity assay where Europium-labelled anti-acetyl lysine antibody binds to the acetylated substrate labelled with biotin which in turn binds to streptavidin labelled APC fluorescence acceptor. Europium can transfer energy to APC in the complex and the interaction of two dye-labelled binding partners is detected by the energy transfer between a donor and an acceptor dye, and the subsequent light emission by the acceptor dye. KAT6A transfer an acetyl group from acetyl CoA to lysine amino acids of histones/target proteins. Typically, 5 μL of human-KAT6A (MYST domain 507-778 aa) in assay buffer (100 mM Tris HCl (pH 7.8), 15 mM NaCl, 1 mM EDTA, 0.01% Tween-20, 0.02% BSA, 1 mM DTT) is added to 384-well plate containing 5 μL of selected test compound in final 1% DMSO, serially diluted in 1:3 in an 8-10-point titration. The selected compound of the present invention and enzyme are incubated for 30 min at room temperature. Next, 5 μL of substrate mix containing histone H4 peptide and acetyl-CoA in assay buffer is added to the plate. The final concentrations of H4 peptide and acetyl-CoA are 200 nM and 600 nM respectively. Following 30 min reaction at room temperature, 5 μL of detection mix containing Europium labelled anti-acetyl antibody and streptavidin-APC is added to the reaction wells. The plate is further incubated for 45 min at room temperature and is read in TR-FRET mode (Ex:340 nm; Em: 615 nm and 665 nm) on a plate reader. The percent inhibition was calculated from the ratio of the fluorescence (FL) intensities [(F665/F615)×10,000) using the formula […]. IC50 values of the compounds were determined by fitting the dose-response data to sigmoidal curve fitting equation using Graph pad prism software V8.

Broadly, the pIC50 is the negative decadic logarithm of the IC50, by convention in mol/L. Lower therefore signals a large IC50.

The structures appear in SMILES notation. pIC50: −log10 of the molar value.

human-KAT6A (MYST domain 507-778 aa), sequence (Q92794 507-778): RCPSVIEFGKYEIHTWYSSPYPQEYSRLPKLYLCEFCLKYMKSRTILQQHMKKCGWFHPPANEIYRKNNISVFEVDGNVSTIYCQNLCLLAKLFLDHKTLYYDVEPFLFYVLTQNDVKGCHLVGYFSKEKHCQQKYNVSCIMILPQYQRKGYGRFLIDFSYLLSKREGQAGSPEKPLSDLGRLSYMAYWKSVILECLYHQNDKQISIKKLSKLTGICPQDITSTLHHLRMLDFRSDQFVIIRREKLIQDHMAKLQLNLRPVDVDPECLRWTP

On to `COc1cc(C2CC2)ccc1S(=O)(=O)Nc1noc2cc(Cn3cccn3)c3c(c12)OCC3` [Compound 65, N-(4-((1H-pyrazol-1-yl)methyl)-2,3-dihydrobenzofuro[7,6-d]isoxazol-8-yl)-4-cyclopropyl-2-methoxybenzenesulfonamide], for which the pIC50 is 8.00.
